Values belong to the molecule of their own block, whether it stands above or below them. Positions of bridges follow the written chain, without caps; N, C: chain ends. Non-standard residues stand in square brackets, D forms with d. Residues, ends and D or L forms follow the SMILES beside them. No end group written: not given here. Orn = NCCC[C@H](N)C(=O)O
Experiments:
[1] = biological target: T1, human SETD3 histidine methyltransferase (human, UniProt Q86TU7 1-594)
T1 sequence (looked up): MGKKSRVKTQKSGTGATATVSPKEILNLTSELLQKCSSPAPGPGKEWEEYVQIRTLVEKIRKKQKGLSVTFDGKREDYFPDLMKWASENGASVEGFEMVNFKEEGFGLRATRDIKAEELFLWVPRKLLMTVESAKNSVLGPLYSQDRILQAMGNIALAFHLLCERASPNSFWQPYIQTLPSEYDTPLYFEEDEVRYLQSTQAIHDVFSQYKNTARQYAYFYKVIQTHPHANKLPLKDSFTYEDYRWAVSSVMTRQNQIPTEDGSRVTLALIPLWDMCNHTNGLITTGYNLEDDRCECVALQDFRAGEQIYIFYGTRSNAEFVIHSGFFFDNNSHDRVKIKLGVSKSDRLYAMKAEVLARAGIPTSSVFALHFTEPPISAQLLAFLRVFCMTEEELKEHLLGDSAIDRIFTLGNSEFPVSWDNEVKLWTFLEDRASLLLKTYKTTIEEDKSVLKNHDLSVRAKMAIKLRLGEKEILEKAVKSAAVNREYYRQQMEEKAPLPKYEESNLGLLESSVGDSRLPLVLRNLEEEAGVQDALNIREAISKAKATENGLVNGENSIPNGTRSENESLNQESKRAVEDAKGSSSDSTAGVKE

human SETD3 [2] = biological target: T2, human SETD3 (Homo sapiens, UniProt Q86TU7); assay: MALDI-TOF MS enzymatic substrate scope assay (SETD3-catalyzed methylation of βA peptides); format: biochemical; conditions: 1 µM SETD3, 10 µM βA peptide, 100 µM SAM, 25 mM Tris, 20 mM NaCl, pH 9.0, 37 °C; for SETD3-catalyzed methylation after 3 h: N = 2
T2 construct: His6 (N); made in house; host or cells: E. coli BL21(DE3)
T2 sequence (Q86TU7 1-594): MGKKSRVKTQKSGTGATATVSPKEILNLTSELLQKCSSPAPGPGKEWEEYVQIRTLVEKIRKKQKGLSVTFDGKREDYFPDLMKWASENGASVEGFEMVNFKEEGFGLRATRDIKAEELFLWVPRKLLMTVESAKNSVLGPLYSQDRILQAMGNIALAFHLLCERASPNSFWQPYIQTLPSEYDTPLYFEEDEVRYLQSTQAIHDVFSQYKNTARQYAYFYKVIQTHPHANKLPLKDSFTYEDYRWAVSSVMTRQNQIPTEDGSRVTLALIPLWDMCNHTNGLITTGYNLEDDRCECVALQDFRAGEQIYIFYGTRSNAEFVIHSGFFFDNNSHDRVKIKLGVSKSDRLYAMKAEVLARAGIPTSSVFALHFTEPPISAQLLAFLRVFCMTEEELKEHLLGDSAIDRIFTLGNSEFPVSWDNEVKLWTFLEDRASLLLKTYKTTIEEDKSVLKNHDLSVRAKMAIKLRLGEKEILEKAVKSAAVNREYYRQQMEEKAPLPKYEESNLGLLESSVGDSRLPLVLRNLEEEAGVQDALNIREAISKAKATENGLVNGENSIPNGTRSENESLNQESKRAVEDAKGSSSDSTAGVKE
Method: We examined conformationally restrained βA peptides and linear controls as substrates for the recombinantly expressed human SETD3 employing MALDI-TOF MS to detect a characteristic + 14 Da mass increase upon methylation. Enzymatic reactions were evaluated using standard conditions (1 µM SETD3, 10 µM βA, 100 µM SAM) in methylation buffer (25 mM Tris, 20 mM NaCl, pH = 9.0 at 37 °C)[21]. The enzymatic reaction was quenched with 10% TFA in MilliQ water (1:1 v/v) at 1 h and 3 h before mass spectrometric analysis (Figs . 4 and S3-S4). […] Finally, azide-alkyne Cu^I-mediated Huisgen 1,3-dipolar cycloaddition yields peptide 11 that was poorly (14%) methylated by SETD3 after 3 h under standard conditions (Figs. 4L and S4L). […] Taken together, these findings illustrate an overall preference of human SETD3 for flexible βA peptides, which facilitates βA-H73 insertion into the active site. Introduction of flexible macrocycles results in an overall reduced methylation by SETD3, while bulky or rigidifying moieties present within the macrocycles render the βA peptides non-reactive to methylation by SETD3.
Fig. 4 MALDI-TOF MS data showing SETD3-catalyzed (1 µM) methylation of βA peptides (10 µM) in the presence of SAM (100 µM) in reaction buffer (25 mM Tris, 20 mM NaCl, pH = 9.0) after 3 h at 37 °C. (A) βA, (B) 1, (C) 2, (D) 3, (E) 4, (F) 5, (G) 6, (H) 7, (I) 8, (J) 9, (K) 10, (L) 11. Control reactions in the absence of SETD3 are shown in black, whereas SETD3-catalyzed reactions are shown in red.
SETD3 substrate scope experiments towards βA peptides were performed by incubation of βA peptides (10 µM) in methylation buffer (25 mM Tris, 20 mM NaCl, pH = 9.0) in the presence of SAM (100 µM) and SETD3 (1 µM) in a final volume of 50 µL for 1 and 3 h at 37 °C while shaking at 750 rpm in an Eppendorf Thermomixer C. The reaction was quenched by addition of 10% TFA in MilliQ H2O (1:1). The reactions were aliquoted and mixed with α-cyano-4-hydroxycinnamic acid dissolved in MilliQ H2O and ACN (1:1, v/v) with 0.1% TFA. The aliquots were loaded onto a MTP 384 polished steel target for MALDI-TOF analysis using a UltrafleXtreme and conversion to methylated product was monitored.

[3] = biological target: human SETD3 histidine methyltransferase (human) (UniProt Q86TU7)
human SETD3 [4] = biological target: T2, human SETD3; assay: MALDI-TOF MS methylation kinetics assay (Michaelis-Menten, steady state); format: biochemical; conditions: 200 nM SETD3, 3.125-150 µM peptide, 100 µM SAM, pH 9.0, 37 °C; for Km / kcat: 25 mM Tris, 20 mM NaCl, MALDI-TOF MS, duplicate, mean ± SE, SEM
Method: (§1) Catalytic efficiencies were explored for SETD3-catalyzed methylation of linear βA peptides 1, 6, 8 and 10 (Fig. 5; Table 1). Kinetic parameters were determined using MALDI-TOF MS assays under steady-state conditions by incubation with saturating amounts of SAM (100 µM)[23]. Addition of SETD3 (200 nM) to varying concentrations of linear βA peptides (0–150 µM) in reaction buffer initiated the reaction, upon which the mixture was incubated at 37 °C and quenched at timepoints that guarantee v0-reaction rates for SETD3-catalyzed methylation.
(§2) Fig. 5 Michaelis–Menten kinetics of linear βA peptides at varying concentrations (3.125-150 µM) by SETD3 (200 nM) in presence of saturating amounts of SAM (100 µM) in reaction buffer (25 mM Tris, 20 mM NaCl, pH = 9.0) at 37 °C.
(§3) Kinetics evaluation was carried out with a MALDI-TOF MS assay under steady state conditions. βA peptides (3.125–150 µM) and SAM (100 µM) were dissolved in methylation buffer (25 mM Tris, 20 mM NaCl, pH = 9.0), upon which the reaction was initiated by addition of SETD3. Reactions were incubated at 37 °C and shaken at 750 rpm Eppendorf Thermomixer C for 30 min, upon which the reactions were quenched by addition of 10% TFA in MilliQ water (1:1). Reactions were aliquoted and mixed with α-cyano-4-hydroxycinnamic acid dissolved in MilliQ H2O and ACN (1:1, v/v) with 0.1% TFA. The aliquots were loaded onto a MTP 384 polished steel target for MALDI-TOF analysis using a UltrafleXtreme. Methylated product was quantified by determining the combined integrals of the various ionic species of the methylated product. Kinetic parameters were subsequently determined by plotting V0 values and actin peptide concentrations and fitting them to the Michaelis–Menten equation using GraphPad Prism software. Experiments were performed in duplicate and values are reported as mean [drawing 1] standard error (SE) (Figs. S3-S4).

[5] = substrate: CC[C@H](C)[C@H](NC(=O)CNC(=O)[C@H](Cc1c[nH]cn1)NC(=O)[C@H](CCC(=O)O)NC(=O)[C@@H](NC(=O)[C@@H]1CCCN1C(=O)[C@H](Cc1ccc(O)cc1)NC(=O)[C@H](CCCCN)NC(=O)[C@H](CC(C)C)NC(=O)[C@@H](N)[C@@H](C)O)[C@@H](C)CC)C(=O)N[C@H](C(=O)N[C@H](C(=O)N[C@@H](CC(N)=O)C(=O)N[C@@H](Cc1c[nH]c2ccccc12)C(=O)N[C@@H](CC(=O)O)C(=O)N[C@@H](CC(=O)O)C(N)=O)[C@@H](C)O)C(C)C; assay: as above; format: biochemical, human; conditions: other: 200 nM SETD3, 3.125-150 µM peptide, 100 µM SAM, 25 mM Tris, 20 mM NaCl, pH 9.0, 37 °C, duplicate, mean ± SE
Method: as §1, §2, §3

- Km of SETD3-catalysed methylation, MALDI-TOF MS steady-state kinetics (200 nM SETD3, 100 µM SAM, pH 9.0, 37 °C) [1]: 45.2 µM
- kcat of SETD3-catalysed methylation, MALDI-TOF MS steady-state kinetics (200 nM SETD3, 100 µM SAM, pH 9.0, 37 °C) [1]: 221 min^-1
- kcat/Km of SETD3-catalysed methylation, MALDI-TOF MS steady-state kinetics (200 nM SETD3, 100 µM SAM, pH 9.0, 37 °C) [1]: 4.91 µM^-1min^-1
Molecule: linear βA peptide 6 (Ile75 replaced by ornithine) (from UniProt P60709 66-81)

- SETD3-catalyzed methylation after 3 h (human SETD3 [2]): 35%
Molecule: TLKYPICHGCVTNWDD (also: sidechain bridge or staple (positions not given here)) [compound 3, stapled bis-thiol alkylated βA peptide]

- SETD3-catalyzed methylation after 3 h (human SETD3 [2]): 14%
Molecule: TLKYPILys(N3)HGPraVTNWDD (sidechain bridge or staple) [compound 11, triazole-stapled βA peptide from azide-alkyne cycloaddition of 10]

Molecule: linear βA peptide 8 (I75K) (from UniProt P60709 66-81)
- Km of SETD3-catalysed methylation, MALDI-TOF MS steady-state kinetics (200 nM SETD3, 100 µM SAM, pH 9.0, 37 °C) [3]: 25.1 µM
- kcat of SETD3-catalysed methylation, MALDI-TOF MS steady-state kinetics (200 nM SETD3, 100 µM SAM, pH 9.0, 37 °C) [3]: 246 min^-1
- kcat/Km of SETD3-catalysed methylation, MALDI-TOF MS steady-state kinetics (200 nM SETD3, 100 µM SAM, pH 9.0, 37 °C) [3]: 9.8 µM^-1min^-1

Molecule: TLKYPICHGCVTNWDD [compound 1, linear dicysteine βA66-81 control peptide]
- Km (human SETD3 [4]): 75.7 ± 20 µM
- kcat (human SETD3 [4]): 0.983 ± 0.125 s⁻¹
- kcat/Km (human SETD3 [4]): 13000 M⁻¹ s⁻¹
- SETD3-catalyzed methylation (conversion) within 1 h (human SETD3 [2]): full conversion

- Km (human SETD3 [4]): 45.2 ± 8.1 µM
- kcat (human SETD3 [4]): 3.68 ± 0.267 s⁻¹
- kcat/Km (human SETD3 [4]): 81800 M⁻¹ s⁻¹
- SETD3-catalyzed methylation (conversion) within 1 h (human SETD3 [2]): completely methylated
Molecule: TLKYPIEHG[Orn]VTNWDD [compound 6, linear lactam control, βA-I75 substituted by Orn]

- SETD3-catalyzed methylation after 3 h (human SETD3 [2]): 30%
Molecule: TLKYPICHGCVTNWDD (also: sidechain bridge or staple (positions not given here)) [compound 2, stapled bis-thiol alkylated βA peptide]

- SETD3-catalyzed methylation after 3 h (human SETD3 [2]): 41%
Molecule: TLKYPIEHG[Orn]VTNWDD (also: sidechain bridge or staple (positions not given here)) [compound 7, i, i + 3 lactam-bridged βA peptide (Glu72-Orn75)]

Molecule: TLKYPILys(N3)HGPraVTNWDD [compound 10, linear click-control with azido-lysine and propargylglycine]
- Km (human SETD3 [4]): 77.8 ± 14 µM
- kcat (human SETD3 [4]): 1.72 ± 0.15 s⁻¹
- kcat/Km (human SETD3 [4]): 22000 M⁻¹ s⁻¹
- SETD3-catalyzed methylation after 3 h (in words) (human SETD3 [2]): full conversion

- SETD3-catalyzed methylation after 3 h (in words) (human SETD3 [2]): inert to methylation
Molecule: TLKYPICHGCVTNWDD (also: sidechain bridge or staple (positions not given here)) [compound 4, βA peptide stapled with hexafluorobenzene]

Molecule: CC[C@H](C)[C@H](NC(=O)[C@@H]1CCCN1C(=O)[C@H](Cc1ccc(O)cc1)NC(=O)[C@H](CCCCN)NC(=O)[C@H](CC(C)C)NC(=O)[C@@H](N)[C@@H](C)O)C(=O)N[C@H]1CCC(=O)NCCCC[C@@H](C(=O)N[C@H](C(=O)N[C@H](C(=O)N[C@@H](CC(N)=O)C(=O)N[C@@H](Cc2c[nH]c3ccccc23)C(=O)N[C@@H](CC(=O)O)C(=O)N[C@@H](CC(=O)O)C(N)=O)[C@@H](C)O)C(C)C)NC(=O)CNC(=O)[C@H](Cc2c[nH]cn2)NC1=O [compound 9] (H-TLKYPIEHGKVTNWDD-NH2; lactam 7-10)
- SETD3-catalyzed methylation after 3 h (human SETD3 [2]): 25%

B1: human SETD3 (Homo sapiens) (protein)
chain: MGKKSRVKTQKSGTGATATVSPKEILNLTSELLQKCSSPAPGPGKEWEEYVQIRTLVEKIRKKQKGLSVTFDGKREDYFPDLMKWASENGASVEGFEMVNFKEEGFGLRATRDIKAEELFLWVPRKLLMTVESAKNSVLGPLYSQDRILQAMGNIALAFHLLCERASPNSFWQPYIQTLPSEYDTPLYFEEDEVRYLQSTQAIHDVFSQYKNTARQYAYFYKVIQTHPHANKLPLKDSFTYEDYRWAVSSVMTRQNQIPTEDGSRVTLALIPLWDMCNHTNGLITTGYNLEDDRCECVALQDFRAGEQIYIFYGTRSNAEFVIHSGFFFDNNSHDRVKIKLGVSKSDRLYAMKAEVLARAGIPTSSVFALHFTEPPISAQLLAFLRVFCMTEEELKEHLLGDSAIDRIFTLGNSEFPVSWDNEVKLWTFLEDRASLLLKTYKTTIEEDKSVLKNHDLSVRAKMAIKLRLGEKEILEKAVKSAAVNREYYRQQMEEKAPLPKYEESNLGLLESSVGDSRLPLVLRNLEEEAGVQDALNIREAISKAKATENGLVNGENSIPNGTRSENESLNQESKRAVEDAKGSSSDSTAGVKE
notes: His6 (N); made in house; host or cells: E. coli BL21(DE3)
- Km [5]: 25.6 ± 4.9 µM
- kcat [5]: 2.47 ± 0.145 s⁻¹
- kcat/Km [5]: 96300 M⁻¹ s⁻¹

From publication PMC11531485, “Examining prestructured β-actin peptides as substrates of histidine methyltransferase SETD3” (Scientific Reports, 2024)
